Laboratory results as given in US10544147B2, “Purine inhibitors of human phosphatidylinositol 3-kinase delta” (MERCK SHARP & DOHME CORP., priority 2016, dated 2020).
pIC50: −log10 of the molar value.

Columns and labels:
[1] = molecular target: PI3Kalpha (Homo sapiens (Human), UniProt P42336); experiment: HTRF PI3K biochemical assay, alpha isoform (selectivity versus delta); conditions: ratio PI3K-alpha IC50 value/PI3K-delta IC50 value
[2] = molecular target: PI3Kdelta (Homo sapiens (Human), UniProt O00329); experiment: HTRF PI3K biochemical assay, delta isoform; conditions: 0.3 nM enzyme, 100 uM ATP, 50 uM PIP2; form screened (neutral or TFA salt)
PI3Kdelta, sequence (O00329 whole entry, canonical isoform): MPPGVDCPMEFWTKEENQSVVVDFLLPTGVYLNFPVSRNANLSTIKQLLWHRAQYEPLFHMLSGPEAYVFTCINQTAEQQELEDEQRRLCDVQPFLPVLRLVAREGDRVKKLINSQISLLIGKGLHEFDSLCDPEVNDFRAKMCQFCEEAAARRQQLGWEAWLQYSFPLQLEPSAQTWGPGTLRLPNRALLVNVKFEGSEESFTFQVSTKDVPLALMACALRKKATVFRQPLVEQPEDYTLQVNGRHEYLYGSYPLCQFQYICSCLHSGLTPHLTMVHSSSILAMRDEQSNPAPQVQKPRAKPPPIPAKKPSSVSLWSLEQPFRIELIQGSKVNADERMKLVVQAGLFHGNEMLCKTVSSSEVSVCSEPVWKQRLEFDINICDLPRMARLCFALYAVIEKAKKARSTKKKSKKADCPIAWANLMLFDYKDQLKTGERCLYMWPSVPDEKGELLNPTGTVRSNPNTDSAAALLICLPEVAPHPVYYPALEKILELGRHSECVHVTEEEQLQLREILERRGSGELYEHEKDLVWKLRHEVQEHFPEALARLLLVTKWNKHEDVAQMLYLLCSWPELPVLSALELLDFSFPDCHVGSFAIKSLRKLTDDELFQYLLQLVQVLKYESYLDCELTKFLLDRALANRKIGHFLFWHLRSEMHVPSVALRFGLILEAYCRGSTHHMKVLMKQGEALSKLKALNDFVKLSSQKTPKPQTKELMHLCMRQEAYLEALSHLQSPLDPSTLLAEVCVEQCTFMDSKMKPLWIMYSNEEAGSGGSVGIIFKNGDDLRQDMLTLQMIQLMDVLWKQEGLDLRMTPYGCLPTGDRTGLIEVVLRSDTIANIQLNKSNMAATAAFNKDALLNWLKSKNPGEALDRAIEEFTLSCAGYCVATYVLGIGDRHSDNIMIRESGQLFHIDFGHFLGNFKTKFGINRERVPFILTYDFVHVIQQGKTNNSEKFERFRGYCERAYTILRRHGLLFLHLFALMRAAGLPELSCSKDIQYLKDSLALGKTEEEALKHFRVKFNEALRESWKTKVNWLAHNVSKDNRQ
PI3Kdelta, sequence (P27986 whole entry partner, canonical isoform): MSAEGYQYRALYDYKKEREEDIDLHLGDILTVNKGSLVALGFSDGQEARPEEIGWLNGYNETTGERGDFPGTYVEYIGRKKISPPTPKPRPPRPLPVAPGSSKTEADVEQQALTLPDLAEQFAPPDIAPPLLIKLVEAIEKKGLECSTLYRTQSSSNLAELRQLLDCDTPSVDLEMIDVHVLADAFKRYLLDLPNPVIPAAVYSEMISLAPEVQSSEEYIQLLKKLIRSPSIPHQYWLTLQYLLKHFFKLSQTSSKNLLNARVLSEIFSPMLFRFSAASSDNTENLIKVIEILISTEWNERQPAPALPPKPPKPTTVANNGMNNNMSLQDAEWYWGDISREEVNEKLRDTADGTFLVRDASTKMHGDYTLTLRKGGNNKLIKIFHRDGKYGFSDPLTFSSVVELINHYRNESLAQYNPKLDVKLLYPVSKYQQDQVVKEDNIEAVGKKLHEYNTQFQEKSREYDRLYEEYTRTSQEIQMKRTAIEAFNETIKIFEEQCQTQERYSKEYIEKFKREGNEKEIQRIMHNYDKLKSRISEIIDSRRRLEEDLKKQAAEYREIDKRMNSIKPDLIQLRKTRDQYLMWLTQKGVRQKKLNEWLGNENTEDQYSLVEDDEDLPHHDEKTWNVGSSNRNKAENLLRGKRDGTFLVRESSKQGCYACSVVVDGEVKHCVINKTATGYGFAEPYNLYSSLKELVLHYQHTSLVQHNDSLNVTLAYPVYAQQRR

PI3Kalpha, sequence (P42336 whole entry, canonical isoform): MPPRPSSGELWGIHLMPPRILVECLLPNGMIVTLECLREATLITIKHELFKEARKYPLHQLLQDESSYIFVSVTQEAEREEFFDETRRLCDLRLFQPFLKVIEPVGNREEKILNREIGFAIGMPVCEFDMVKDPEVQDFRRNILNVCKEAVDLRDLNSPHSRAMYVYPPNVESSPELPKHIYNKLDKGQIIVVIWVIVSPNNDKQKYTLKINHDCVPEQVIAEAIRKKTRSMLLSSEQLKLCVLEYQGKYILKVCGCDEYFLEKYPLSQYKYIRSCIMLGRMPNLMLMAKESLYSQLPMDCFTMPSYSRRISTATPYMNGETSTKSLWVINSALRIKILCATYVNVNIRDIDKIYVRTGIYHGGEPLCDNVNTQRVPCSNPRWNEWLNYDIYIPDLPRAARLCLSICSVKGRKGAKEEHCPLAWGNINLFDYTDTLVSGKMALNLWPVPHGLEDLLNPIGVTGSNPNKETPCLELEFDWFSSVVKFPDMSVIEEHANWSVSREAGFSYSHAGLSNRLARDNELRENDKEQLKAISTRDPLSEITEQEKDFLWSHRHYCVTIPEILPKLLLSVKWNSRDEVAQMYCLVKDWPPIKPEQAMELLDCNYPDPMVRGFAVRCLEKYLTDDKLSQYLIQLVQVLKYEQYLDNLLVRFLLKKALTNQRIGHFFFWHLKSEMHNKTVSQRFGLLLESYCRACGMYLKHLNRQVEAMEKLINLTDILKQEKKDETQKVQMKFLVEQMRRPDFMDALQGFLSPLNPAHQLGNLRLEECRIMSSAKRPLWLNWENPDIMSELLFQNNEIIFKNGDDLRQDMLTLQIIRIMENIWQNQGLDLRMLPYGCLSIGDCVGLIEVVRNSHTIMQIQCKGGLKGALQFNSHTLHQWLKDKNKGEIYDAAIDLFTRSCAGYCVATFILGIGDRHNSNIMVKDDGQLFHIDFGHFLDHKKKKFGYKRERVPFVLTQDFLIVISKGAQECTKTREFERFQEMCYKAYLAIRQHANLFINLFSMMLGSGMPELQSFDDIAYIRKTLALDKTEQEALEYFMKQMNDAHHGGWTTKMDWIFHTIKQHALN
PI3Kalpha, sequence (P27986 whole entry partner, canonical isoform): as the sequence (P27986 whole entry partner, canonical isoform) above

SMILES	Relative Selectivity versus PI3Kalpha [1]	pIC50 [2]
CCn1c(-c2cnc(C)nc2)nc2c(-c3ccc4c(c3)C(C)(NCC3CCC3)C(=O)N4)ncnc21 (racemic) [Compound 2-20, (R and S)-3-[(cyclobutylmethyl)amino]-5-[9-ethyl-8-(2-methylpyrimidin-5-yl)-9H-purin-6-yl]-3-methyl-1,3-dihydro-2H-indol-2-one]	>10	7.64
CCn1c(-c2cnc(C)nc2)nc2c(-c3ccc4c(c3)C(C)(C3CCOCC3)C(=O)N4)ncnc21 (single isomer, unassigned) [Compound 1-34, 5-(9-Ethyl-8-(2-methylpyrimidin-5-yl)-9H-purin-6-yl)-3-methyl-3-(tetrahydro-2H-pyran-4-yl)indolin-2-one]	8	7.32
CCn1c(-c2cnc(C)nc2)nc2c(-c3ccc4c(c3)C(C)(NCC3(C)CCC3)C(=O)N4)ncnc21 (racemic) [Compound 2-18, (R and S)-5-[9-ethyl-8-(2-methylpyrimidin-5-yl)-9H-purin-6-yl]-3-methyl-3-{[(1-methylcyclobutyl)methyl]amino}-1,3-dihydro-2H-indol-2-one]	>10	8.10
CCn1c(-c2cnc(C)nc2)nc2c(-c3cnc4c(c3)C(C)(CC3CC3)C(=O)N4)ncnc21 (single isomer, unassigned) [Compound 1-14, (R or S)-3-(cyclopropylmethyl)-5-(9-ethyl-S-(2-methylpyrimidin-5-yl)-9H-purin-6-yl)-3-methyl-1,3-dihydro-2H-pyrrolo[2,3-b]pyridin-2-one]	>10	7.80
Cc1ncc(-c2nc3c(-c4cnc5c(c4)C(C)(CC(C)C)C(=O)N5)ncnc3n2C)cn1 (single isomer, unassigned) [Compound 1-26, (R or S)-3-isobutyl-3-methyl-5-(9-methyl-8-(2-methylpyrimidin-5-yl)-9H-purin-6-yl)-1,3-dihydro-2H-pyrrolo[2,3-b]pyridin-2-one]	>10	7.30
CCn1c(-c2cnc(C)nc2)nc2c(-c3ccc4c(c3)C(C)(NCCOC)C(=O)N4)ncnc21 (racemic) [Compound 2-16, (R and S)-5-[9-ethyl-8-(2-methylpyrimidin-5-yl)-9H-purin-6-yl]-3-[(2-methoxyethyl)amino]-3-methyl-1,3-dihydro-2H-indol-2-one]	>10	7.37
CCn1c(-c2cnc(C)nc2)nc2c(-c3ccc4c(c3)C(C)(N3CC5(CCOC5)C3)C(=O)N4)ncnc21 (racemic) [Compound 2-28, (R and S)-5-[9-ethyl-8-(2-methylpyrimidin-5-yl)-9H-purin-6-yl]-3-methyl-3-(6-oxa-2-azaspiro[3.4]oct-2-yl)-1,3-dihydro-2H-indol-2-one]	>10	7.31
CCn1c(-c2cnc(C)nc2)nc2c(-c3ccc4c(c3)C(C)(Cc3ccccc3)C(=O)N4C)ncnc21 (single isomer, unassigned) [Compound 1-20, 3-Benzyl-5-(9-ethyl-8-(2-methylpyrimidin-5-yl)-9H-purin-6-yl)-1,3-dimethylindolin-2-one]	3	6.32
CCn1c(-c2cnc(C)nc2)nc2c(-c3cnc4c(c3)C(C)(N3CC(C)(C#N)C3)C(=O)N4)ncnc21 (single isomer, unassigned) [Compound 2-54, (S or R)-1-(5-(9-ethyl-8-(2-methylpyrimidin-5-yl)-9H-purin-6-yl)-3-methyl-2-oxo-2,3-dihydro-1H-pyrrolo[2,3-b]pyridin-3-yl)-3-methylazetidine-3-carbonitrile]	>10	6.77
CCn1c(C(F)F)nc2c(-c3ccc4c(c3)C(C)(Cc3ccccc3)C(=O)N4)ncnc21 (single isomer, unassigned) [Compound 1-23, (R or S)-benzyl-5-(8-(difluoromethyl)-9-ethyl-9H-purin-6-yl)-3-methylindolin-2-one]	>10	7.57
CCn1c(-c2cnc(C)nc2)nc2c(-c3ccc4c(c3)C(C)(OCC3CC3)C(=O)N4)ncnc21 (single isomer, unassigned) [Compound 2-57, (R or S)-3-(cyclopropylmethoxy)-5-(9-ethyl-8-(2-methylpyrimidin-5-yl)-9H-purin-6-yl)-3-methylindolin-2-one]	>10	6.58
CCn1c(-c2cnc(C)nc2)nc2c(-c3ccc4c(c3)C(C)(N(C)C(C)C)C(=O)N4)ncnc21 (racemic) [Compound 2-15, (R and S)-5-[9-ethyl-8-(2-methylpyrimidin-5-yl)-9H-purin-6-yl]-3-methyl-3-[methyl(1-methylethyl)amino]-1,3-dihydro-2H-indol-2-one]	>10	7.34
CCn1c(-c2cnc(C)nc2)nc2c(-c3ccc4c(c3)C(C)(N3CC(C)(F)C3)C(=O)N4)ncnc21 (single isomer, unassigned) [Compound 2-63, (R or S)-5-(9-ethyl-8-(2-methylpyrimidin-5-yl)-9H-purin-6-yl)-3-(3-fluoro-3-methylazetidin-1-yl)-3-methylindolin-2-one]	>10	7.06
CCn1c(-c2cnc(C)nc2)nc2c(-c3ccc4c(c3)C(C)(NCC3CC3)C(=O)N4)ncnc21 (single isomer, unassigned) [Compound 2-34, (R or S)-3-[(cyclopropylmethyl)amino]-5-[9-ethyl-8-(2-methylpyrimidin-5-yl)-9H-purin-6-yl]-3-methyl-1,3-dihydro-2H-indol-2-one]	>10	7.54
CCn1c(-c2cnc(C)nc2)nc2c(-c3ccc4c(c3)C(C)(NCC(C)(C)C#N)C(=O)N4)ncnc21 (single isomer, unassigned) [Compound 2-39, (R or S)-3-((5-(9-ethyl-8-(2-methylpyrimidin-5-yl)-9H-purin-6-yl)-3-methyl-2-oxoindolin-3-yl)amino)-2,2-dimethylpropanenitrile]	>10	8.52
CCn1c(-c2cnc(C)nc2)nc2c(-c3ccc4c(c3)C(C)(OCC(C)(C)F)C(=O)N4)ncnc21 (single isomer, unassigned) [Compound 2-55, (R or S)-5-(9-ethyl-8-(2-methylpyrimidin-5-yl)-9H-purin-6-yl)-3-(2-fluoro-2-methylpropoxy)-3-methylindolin-2-one]	>10	6.70
CCn1c(-c2cnc(C)nc2)nc2c(-c3ccc4c(c3)C(C)(CC(C)C)C(=O)N4)ncnc21 (single isomer, unassigned) [Compound 1-2, 5-(9-Ethyl-8-(2-methylpyrimidin-5-yl)-9H-purin-6-yl)-3-isobutyl-3-methylindolin-2-one]	>10	6.92
CCn1c(-c2cnc(C)nc2)nc2c(-c3ccc4c(c3)C(C)(N3C[C@@H](C)O[C@@H](C)C3)C(=O)N4)ncnc21 (single isomer, unassigned) [Compound 2-4, (R or S)-3-[(cis)-2,6-dimethylmorpholin-4-yl]-5-[9-ethyl-8-(2-methylpyrimidin-5-yl)-9H-purin-6-yl]-3-methyl-1,3-dihydro-2H-indol-2-one]	>10	8.30

Now from value to compound:

Relative Selectivity versus PI3Kalpha [1]	pIC50 [2]	SMILES
>10	8.60	Cc1ncc(-c2nc3c(-c4ccc5c(c4)C4(CCCN4C(=O)C4CC4)C(=O)N5CC(C)(C)O)ncnc3n2C)cn1 (single isomer, unassigned) [Compound 3-17, (R or S)-1′-(cyclopropanecarbonyl)-1-(2-hydroxy-2-methylpropyl)-5-(9-methyl-8-(2-methylpyrimidin-5-yl)-9H-purin-6-yl)spiro[indoline-3,2′-pyrrolidin]-2-one]
>10	7.85	CCn1c(-c2cnc(C)nc2)nc2c(-c3ccc4c(c3)C3(CCN(C(C)C)C3)C(=O)N4)ncnc21 (single isomer, unassigned) [Compound 3-35, (R or S)-5-(9-ethyl-8-(2-methylpyrimidin-5-yl)-9H-purin-6-yl)-1′-isopropylspiro[indoline-3,3′-pyrrolidin]-2-one]
6	7.23	CCn1c(-c2cnc(C)nc2)nc2c(-c3ccc4c(c3)C(C)(CC(C)C)OC(=O)N4)ncnc21 (single isomer, unassigned) [Compound 4-3, (R or S)-6-[9-ethyl-8-(2-methylpyrimidin-5-yl)-9H-purin-6-yl]-4-methyl-4-(2-methylpropyl)-1,4-dihydro-2H-3,1-benzoxazin-2-one]
>10	7.59	CCn1c(-c2cnc(C)nc2)nc2c(-c3ccc4c(c3)C3(CCN(C(C)C)C3)C(=O)N4)ncnc21 (single isomer, unassigned) [Compound 3-36, (R or S)-5-(9-ethyl-8-(2-methylpyrimidin-5-yl)-9H-purin-6-yl)-1′-isopropylspiro[indoline-3,3′-pyrrolidin]-2-one]
2	7.16	CCn1c(-c2cnc(C)nc2)nc2c(-c3ccc4c(c3)C3(CCCN3S(=O)(=O)C(F)(F)F)C(=O)N4)ncnc21 (single isomer, unassigned) [Compound 3-21, (R or S)-5-(9-ethyl-8-(2-methylpyrimidin-5-yl)-9H-purin-6-yl)-1′-((trifluoromethyl)sulfonyl)spiro[indoline-3,2′-pyrrolidin]-2-one]
>10	7.85	CCn1c(-c2cnc(C)nc2)nc2c(-c3ccc4oc(=O)n(C(C)c5ccccc5)c4c3)ncnc21 (single isomer, unassigned) [Compound 5-1, (R or S)-5-[9-ethyl-8-(2-methylpyrimidin-5-yl)-9H-purin-6-yl]-3-(1-phenylethyl)-1,3-benzoxazol-2(3H)-one]
